One assay is filed under the species Cavia porcellus. Description: (§1) Antagonist activity at muscarinic M2 receptor in carbachol-stimulated guinea pig left atrium. Format: functional, tissue-based. Particulars: Cardiac atrium.
Assay [1] deals with Muscarinic acetylcholine receptor M3 (Homo sapiens, UniProt P20309). In words: Displacement of [3H]N-methylscopolamine from human recombinant muscarinic M3 receptor expressed in CHO cells. Type of assay: cell-based.
In assay [2] the target is T1, Muscarinic acetylcholine receptor M2 (Homo sapiens, UniProt P08172).
T1 sequence (P08172 whole entry): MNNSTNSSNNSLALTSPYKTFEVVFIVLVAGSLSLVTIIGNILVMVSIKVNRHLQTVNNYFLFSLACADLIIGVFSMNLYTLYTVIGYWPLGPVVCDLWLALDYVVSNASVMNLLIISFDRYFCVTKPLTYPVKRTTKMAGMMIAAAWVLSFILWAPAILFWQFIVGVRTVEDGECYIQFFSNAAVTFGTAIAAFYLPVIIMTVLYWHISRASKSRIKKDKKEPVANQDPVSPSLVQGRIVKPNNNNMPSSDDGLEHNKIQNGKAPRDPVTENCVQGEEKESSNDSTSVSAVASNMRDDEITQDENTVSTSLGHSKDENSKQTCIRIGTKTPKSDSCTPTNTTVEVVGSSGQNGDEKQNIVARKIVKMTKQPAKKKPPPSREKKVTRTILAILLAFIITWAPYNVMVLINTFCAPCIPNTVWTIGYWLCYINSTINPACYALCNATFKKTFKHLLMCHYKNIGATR
Description: Displacement of [3H]N-methylscopolamine from human recombinant muscarinic M2 receptor expressed in CHO cells. Type of assay: cell-based.

Assay [3] addresses Muscarinic acetylcholine receptor M3 (Cavia porcellus, UniProt Q8VH26). In words: Antagonist activity at muscarinic M3 receptor in carbachol-stimulated guinea pig trachea. Type of assay: functional. Particulars: read-out: pA2 (converted).
Assay [4] concerns the target Muscarinic acetylcholine receptor M3 (Cavia porcellus) (UniProt Q8VH26). Description: Reversible inhibition of muscarinic M3 receptor in electrically-stimulated guinea pig trachea assessed as recovery of maximal effect at >280 min. Set-up: scale not given: the % may be the effect or the level left. Format: tissue-based.
A short description of assay [5]: as §1. To be noted: Cavia porcellus, Cardiac atrium; read-out: pA2 (converted). Format: functional, tissue-based.

Structures are written as SMILES. Calls of active or inactive are those of the source. The rule behind the calls is not given here.

Chain of Muscarinic acetylcholine receptor M3 (Homo sapiens, UniProt P20309) (P20309 whole entry): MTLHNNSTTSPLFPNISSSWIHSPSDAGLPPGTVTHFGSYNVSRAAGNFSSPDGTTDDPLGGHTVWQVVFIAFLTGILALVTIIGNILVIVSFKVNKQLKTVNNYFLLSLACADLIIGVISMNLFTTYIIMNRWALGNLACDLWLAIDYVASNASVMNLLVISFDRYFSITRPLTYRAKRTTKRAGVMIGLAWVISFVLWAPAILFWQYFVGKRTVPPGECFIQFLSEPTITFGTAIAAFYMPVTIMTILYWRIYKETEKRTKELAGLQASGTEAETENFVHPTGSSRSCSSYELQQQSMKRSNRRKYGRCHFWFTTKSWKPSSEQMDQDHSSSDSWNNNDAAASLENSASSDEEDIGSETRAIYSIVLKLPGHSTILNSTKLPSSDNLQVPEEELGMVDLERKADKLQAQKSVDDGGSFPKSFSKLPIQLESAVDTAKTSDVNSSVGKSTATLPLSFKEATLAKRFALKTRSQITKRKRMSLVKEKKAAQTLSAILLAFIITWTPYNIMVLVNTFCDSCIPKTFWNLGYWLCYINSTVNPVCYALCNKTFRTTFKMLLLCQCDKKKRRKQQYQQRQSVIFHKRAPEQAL
Chain of Muscarinic acetylcholine receptor M3 (Cavia porcellus, UniProt Q8VH26) (Q8VH26 whole entry): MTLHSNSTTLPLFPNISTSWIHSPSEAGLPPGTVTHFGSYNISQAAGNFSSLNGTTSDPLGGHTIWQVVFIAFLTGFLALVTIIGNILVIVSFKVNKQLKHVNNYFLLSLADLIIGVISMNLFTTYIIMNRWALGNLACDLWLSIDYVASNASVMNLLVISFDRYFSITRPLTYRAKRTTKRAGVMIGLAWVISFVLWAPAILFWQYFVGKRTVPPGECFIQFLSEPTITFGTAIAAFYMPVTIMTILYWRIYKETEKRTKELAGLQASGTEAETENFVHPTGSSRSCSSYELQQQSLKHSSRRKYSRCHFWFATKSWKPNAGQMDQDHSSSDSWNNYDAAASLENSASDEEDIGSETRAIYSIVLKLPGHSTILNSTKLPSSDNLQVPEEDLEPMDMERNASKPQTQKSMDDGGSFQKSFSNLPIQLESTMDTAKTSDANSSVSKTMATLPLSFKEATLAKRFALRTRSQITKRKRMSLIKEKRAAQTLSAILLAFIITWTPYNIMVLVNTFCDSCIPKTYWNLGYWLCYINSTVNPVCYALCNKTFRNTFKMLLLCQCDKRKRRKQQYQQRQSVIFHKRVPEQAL
Chain of Muscarinic acetylcholine receptor M3 (Cavia porcellus) (Q8VH26 1-587): as the sequence (Q8VH26 whole entry) above

`CO[C@]1(C#C[C@@](O)(c2ccccc2)C2CCCCC2)CN2CCC1CC2`: in the assay filed under Cavia porcellus, the result was Active.
With `CO[C@]1(C#C[C@@](O)(c2ccccc2)C2CCCCCC2)CN2CCC1CC2`, the Ki in assay [1] is 2 nM; in assay [2] it was 20 nM. Further, in the assay filed under Cavia porcellus, the outcome was Active.
For `COC(C#C[C@@]1(OC)CN2CCC1CC2)(c1ccccc1)c1ccccc1`, in that order: 10 nM, 158 nM and “Active”.
For `CO[C@]1(C#C[C@](O)(c2ccccc2)C2CCCCCC2)CN2CCC1CC2`, the Kb was 6.31 nM in assay [3] and 5.01 nM in assay [5]. Also, the Ki in assay [1] is 0.316 nM; in assay [2], 2.51 nM. In addition, the Activity in assay [4] worked out at 20%.
Turning to `C[N+]1(C)[C@@H]2C[C@@H](OC(=O)C(O)(c3cccs3)c3cccs3)C[C@H]1[C@@H]1O[C@@H]12`, the result in the assay listed under Cavia porcellus was Active.
As to `CC(C)[N+]1(C)C2CCC1CC(OC(=O)[C@H](CO)c1ccccc1)C2` (stereo not given in full), in the assay filed under Cavia porcellus, the outcome was Active.
For `COC1(C#CC(C)(c2ccccc2)c2ccccc2)CN2CCC1CC2` (stereo not given), the Ki was 15.8 nM in assay [1] and 39.8 nM in assay [2]. Besides, the outcome in the assay filed under Cavia porcellus was Active.
As to `CO[C@]1(C#C[C@@](O)(c2ccccc2)C2CCCCCCC2)CN2CCC1CC2`, the Ki in assay [1] is 2.51 nM; in assay [2] it was 31.6 nM. Further, the result in the assay listed under Cavia porcellus was Active.
Consider `CO[C@]1(C#C[C@](O)(c2ccccc2)C2CCCCC2)CN2CCC1CC2`, for which the result in the assay filed under Cavia porcellus was Active.
The same measure, in the same setting: under `CO[C@]1(C#CC(O)(c2ccccc2)c2ccccc2)CN2CCC1CC2` stands “Active”.
On to `COC1(C#CC(C#N)(c2ccccc2)c2ccccc2)CN2CCC1CC2` (stereo not given), for which the figures for the Ki in assay [1] and in assay [2] were 2.51 nM and 6.31 nM, respectively. Further, the outcome in the assay listed under Cavia porcellus was Active.
For the compound `CO[C@]1(C#C[C@](O)(c2ccccc2)C2CCCCCCC2)CN2CCC1CC2`, the Kb in assay [3] is 6.31 nM; in assay [5], 31.6 nM. For the same compound, the Ki in assay [1] was 0.316 nM; in assay [2], 3.16 nM. In addition, the Activity in assay [4] stood at 20%.
